pIC50: −log10 of the molar value. Active and inactive are the calls of the source. The rule behind the calls is not given here.
Assays:
HUVEC = assay: Antiproliferative activity against HUVEC after 48 hrs by MTT assay; format: functional, cell-based; settings: Homo sapiens
Ishikawa [1] = assay: Antiproliferative activity against human Ishikawa cells after 48 hrs by MTT assay; format: functional, cell-based
MCF7 [2] = assay: Antiproliferative activity against human MCF7 cells after 48 hrs by MTT assay; format: functional, cell-based; settings: MCF7, 48 h
MCF7 [3] = assay: Effect on PgR mRNA expression in human MCF7 cells at 1 uM by SYBR Green dye based RT-PCR analysis; format: functional, cell-based
Ishikawa [4] = assay: Antiproliferative activity against human Ishikawa cells at >40 uM after 48 hrs by MTT assay; format: functional, cell-based
Ishikawa [5] = assay: Stimulation of cell proliferation in human Ishikawa cells at 10 uM after 48 hrs by MTT assay; format: ADME, cell-based
Chorioallantoic membrane = assay: Antiangiogenic activity in chicken fertilized egg chorioallantoic membrane at 1 to 20 uM measured after 72 hrs; format: functional, tissue-based; settings: Gallus gallus
[6] = biological target: Vascular endothelial growth factor receptor 2 (Homo sapiens) (UniProt P35968); settings: HUVEC, at 1 µM
Chain of Vascular endothelial growth factor receptor 2 (Homo sapiens) (P35968 whole entry): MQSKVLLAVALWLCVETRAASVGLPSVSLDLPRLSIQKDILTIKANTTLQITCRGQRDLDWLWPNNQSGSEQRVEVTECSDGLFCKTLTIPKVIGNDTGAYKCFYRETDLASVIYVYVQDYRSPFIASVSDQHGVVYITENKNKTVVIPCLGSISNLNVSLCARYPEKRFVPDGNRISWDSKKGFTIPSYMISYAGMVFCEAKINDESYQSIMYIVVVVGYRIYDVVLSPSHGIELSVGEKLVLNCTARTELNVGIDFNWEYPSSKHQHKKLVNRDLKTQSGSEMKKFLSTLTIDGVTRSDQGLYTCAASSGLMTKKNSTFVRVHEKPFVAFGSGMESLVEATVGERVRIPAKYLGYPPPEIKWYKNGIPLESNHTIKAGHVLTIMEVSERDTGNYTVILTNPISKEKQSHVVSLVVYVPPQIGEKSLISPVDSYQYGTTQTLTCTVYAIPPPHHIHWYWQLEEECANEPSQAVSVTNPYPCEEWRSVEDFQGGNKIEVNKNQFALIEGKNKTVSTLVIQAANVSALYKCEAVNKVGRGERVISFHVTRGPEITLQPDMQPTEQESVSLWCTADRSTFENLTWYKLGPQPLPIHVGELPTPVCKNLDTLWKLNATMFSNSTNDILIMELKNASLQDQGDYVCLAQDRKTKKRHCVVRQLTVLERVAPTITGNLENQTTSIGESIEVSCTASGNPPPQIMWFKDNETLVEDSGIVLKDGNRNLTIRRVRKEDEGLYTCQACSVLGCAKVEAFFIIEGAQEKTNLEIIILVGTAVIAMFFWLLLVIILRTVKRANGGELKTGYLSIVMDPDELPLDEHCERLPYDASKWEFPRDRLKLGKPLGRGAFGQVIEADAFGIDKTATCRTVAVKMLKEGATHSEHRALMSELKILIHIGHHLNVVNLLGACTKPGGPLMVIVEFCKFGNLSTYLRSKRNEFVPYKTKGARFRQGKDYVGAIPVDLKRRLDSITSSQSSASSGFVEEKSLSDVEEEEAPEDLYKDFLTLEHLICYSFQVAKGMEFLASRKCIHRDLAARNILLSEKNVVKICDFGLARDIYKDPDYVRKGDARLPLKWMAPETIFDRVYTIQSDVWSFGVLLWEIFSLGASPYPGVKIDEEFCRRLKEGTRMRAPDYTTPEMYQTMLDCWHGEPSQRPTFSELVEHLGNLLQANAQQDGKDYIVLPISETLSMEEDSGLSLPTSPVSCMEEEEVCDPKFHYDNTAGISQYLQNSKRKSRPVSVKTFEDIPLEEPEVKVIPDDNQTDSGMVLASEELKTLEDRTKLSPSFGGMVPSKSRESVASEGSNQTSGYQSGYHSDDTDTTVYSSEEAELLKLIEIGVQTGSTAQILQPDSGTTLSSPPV
Description: Inhibition of VEGFR2 phosphorylation in HUVEC at 1 uM after 24 hrs by Western blot analysis

Row | SMILES | pIC50 (HUVEC) | pIC50 (Ishikawa [1]) | pIC50 (MCF7 [2]) | Activity (MCF7 [3]) | Activity (Ishikawa [4]) | Activity (Ishikawa [5]) | Activity (Chorioallantoic membrane) | inhibition [6]
1 | CN1CCN(CC(=O)Nc2ccc(Nc3nc(-c4ccc(O)cc4)cc(-c4ccc(O)cc4)n3)cc2)CC1 | 5.17 | 5.31 | 5.28 |  |  |  |  | 
2 | COc1ccc(-c2cc(-c3ccc(OC)cc3)nc(Nc3ccc(NC(=O)CN(C)C)cc3)n2)cc1 | 5.55 | 5.44 | 5.60 |  |  |  |  | 
3 | COc1ccc(-c2cc(-c3ccc(O)cc3)nc(Nc3ccc(NC(=O)CN4CCCCC4)cc3)n2)cc1 | 4.97 | 5.85 | < 4.00 |  |  |  |  | 
4 | CCN(CC)CC(=O)Nc1ccc(Nc2nc(-c3ccc(O)cc3)cc(-c3ccc(O)cc3)n2)cc1 | 4.72 | 4.76 | 4.57 |  |  |  |  | 
5 | COc1ccc(-c2cc(-c3ccc(O)cc3)nc(Nc3ccc(NC(=O)CN4CCCC4)cc3)n2)cc1 | 5.64 | 5.26 | 5.35 |  |  |  |  | 
6 | COc1ccc(-c2cc(-c3ccc(O)cc3)nc(Nc3ccc(NC(=O)CN4CCOCC4)cc3)n2)cc1 | 4.99 | 4.37 | 4.72 |  |  |  |  | 
7 | COc1ccc(-c2cc(-c3ccc(O)cc3)nc(Nc3ccc(OCCN4CCCCC4)cc3)n2)cc1 | 5.35 | 5.32 | 4.77 |  |  |  |  | 
8 | CCN(CC)CCOc1ccc(Nc2nc(-c3ccc(OC)cc3)cc(-c3ccc(OC)cc3)n2)cc1 | 5.66 | 5.37 | 5.30 |  |  |  |  | 
9 | CC/C(=C(\c1ccccc1)c1ccc(OCCN(C)C)cc1)c1ccccc1 [TAMOXIFEN] |  |  |  | inactive | Active | Toxic |  | 
10 | O=C(CN1CCOCC1)Nc1ccc(Nc2nc(-c3ccc(O)cc3)cc(-c3ccc(O)cc3)n2)cc1 | 4.33 | 4.22 | 4.81 |  |  |  |  | 
11 | COc1ccc(-c2cc(-c3ccc(OC)cc3)nc(Nc3ccc(NC(=O)CN4CCCC4)cc3)n2)cc1 | 5.60 | 5.72 | 5.66 | inactive |  |  | Active | Active
12 | COc1ccc(-c2cc(-c3ccc(O)cc3)nc(Nc3ccc(OCCN(C)C)cc3)n2)cc1 | 5.33 | 5.28 | 5.44 |  |  |  |  | 
13 | COc1ccc(-c2cc(-c3ccc(O)cc3)nc(Nc3ccc(NC(=O)CN(C)C)cc3)n2)cc1 | 5.42 | 5.20 | 5.47 |  |  |  |  | 
14 | CN(C)CC(=O)Nc1ccc(Nc2nc(-c3ccc(O)cc3)cc(-c3ccc(O)cc3)n2)cc1 | 4.22 | 5.10 | 4.40 |  |  |  |  | 
15 | Oc1ccc(-c2cc(-c3ccc(O)cc3)nc(Nc3ccc(OCCN4CCOCC4)cc3)n2)cc1 | 4.13 |  |  |  |  |  |  | 
16 | COc1ccc(-c2cc(-c3ccc(O)cc3)nc(Nc3ccc(NC(=O)CN4CCN(C)CC4)cc3)n2)cc1 | 5.33 | 5.38 | 5.39 |  |  |  |  | 
17 | CN(C)CCOc1ccc(Nc2nc(-c3ccc(O)cc3)cc(-c3ccc(O)cc3)n2)cc1 | 5.33 | 5.80 | 4.71 |  |  |  |  | 

Row | SMILES | pIC50 (HUVEC) | pIC50 (Ishikawa [1]) | pIC50 (MCF7 [2]) | Activity (MCF7 [3]) | Activity (Ishikawa [4]) | Activity (Ishikawa [5]) | Activity (Chorioallantoic membrane) | inhibition [6]
18 | CCN(CC)CCOc1ccc(Nc2nc(-c3ccc(O)cc3)cc(-c3ccc(OC)cc3)n2)cc1 | 5.46 | 5.19 | 5.25 |  |  |  |  | 
19 | COc1ccc(-c2cc(-c3ccc(OC)cc3)nc(Nc3ccc(OCCN4CCCCC4)cc3)n2)cc1 | 5.27 | 5.72 | 4.49 |  |  |  |  | 
20 | COc1ccc(-c2cc(-c3ccc(OC)cc3)nc(Nc3ccc(OCCN(C)C)cc3)n2)cc1 | 5.34 | 5.29 | 5.44 |  |  |  |  | 
21 | COc1ccc(-c2cc(-c3ccc(OC)cc3)nc(Nc3ccc(NC(=O)CN4CCOCC4)cc3)n2)cc1 |  |  | 4.48 |  |  |  |  | 
22 | CCN(CC)CCNC(=O)c1c(C)[nH]c(/C=C2\C(=O)Nc3ccc(F)cc32)c1C [SUNITINIB] | 5.52 |  |  |  |  |  | Active | 
23 | Oc1ccc(-c2cc(-c3ccc(O)cc3)nc(Nc3ccc(OCCN4CCCCC4)cc3)n2)cc1 | 5.34 | 5.30 | 5.21 |  |  |  |  | 
24 | COc1ccc(-c2cc(-c3ccc(O)cc3)nc(Nc3ccc(OCCN4CCCC4)cc3)n2)cc1 | 5.51 | 5.23 | 5.34 |  |  |  |  | 
25 | O=C(CN1CCCCC1)Nc1ccc(Nc2nc(-c3ccc(O)cc3)cc(-c3ccc(O)cc3)n2)cc1 | 5.13 | 4.87 | 4.58 |  |  |  |  | 
26 | CCN(CC)CCOc1ccc(Nc2nc(-c3ccc(O)cc3)cc(-c3ccc(O)cc3)n2)cc1 | 5.60 | 5.32 | 5.29 |  |  |  |  | 
27 | COc1ccc(-c2cc(-c3ccc(OC)cc3)nc(Nc3ccc(OCCN4CCN(C)CC4)cc3)n2)cc1 | 5.52 | 5.24 | 5.38 |  |  |  |  | 
28 | Oc1ccc(-c2cc(-c3ccc(O)cc3)nc(Nc3ccc(OCCN4CCCC4)cc3)n2)cc1 | 5.33 | 5.35 | 4.24 |  |  |  |  | 
29 | COc1ccc(-c2cc(-c3ccc(OC)cc3)nc(Nc3ccc(NC(=O)CN4CCN(C)CC4)cc3)n2)cc1 | 5.30 | 5.24 | 5.74 |  |  |  |  | 
30 | O=C(CN1CCCC1)Nc1ccc(Nc2nc(-c3ccc(O)cc3)cc(-c3ccc(O)cc3)n2)cc1 | 5.15 | 5.08 | 4.71 |  |  |  |  | 
31 | CCN(CC)CC(=O)Nc1ccc(Nc2nc(-c3ccc(O)cc3)cc(-c3ccc(OC)cc3)n2)cc1 | 4.66 | 4.79 | 4.31 |  |  |  |  | 
32 | CN1CCN(CCOc2ccc(Nc3nc(-c4ccc(O)cc4)cc(-c4ccc(O)cc4)n3)cc2)CC1 | 5.60 | 5.27 | 5.28 |  |  |  |  | 
33 | COc1ccc(-c2cc(-c3ccc(O)cc3)nc(Nc3ccc(OCCN4CCN(C)CC4)cc3)n2)cc1 | 5.62 | 5.28 | 5.32 |  |  |  |  | 
34 | COc1ccc(-c2cc(-c3ccc(OC)cc3)nc(Nc3ccc(OCCN4CCCC4)cc3)n2)cc1 | 5.68 | 5.41 | 5.59 |  |  |  |  | 

Reference: ChEMBL document CHEMBL4219095, “Synthesis and biological evaluation of 4,6-diaryl-2-pyrimidinamine derivatives as anti-breast cancer agents” (Bioorg Med Chem Lett, 2018)
